One compound from patent US6447997B1, “Gene coding for GADD153 as a clinical diagnostic and prognostic in cancer therapy” (Research Development Foundation, priority 1997, dated 2002) can be followed below.

For experiment [1], the system named is UMSCC10b cells. Nature of the experiment: Sensitivity to cDDP in vitro, clonogenic assay. In kind it is cell-based, human. The following applies: parental cell line, 1 h exposure. Here is the method:
The sensitivity of the UMSCC10b cell line and its cDDP-resistant variants to cDDP was determined by clonogenic assay using a 1 h cDDP exposure. A single-cell suspension was plated into 60 mm tissue culture dishes (Corning) at 300 cells per dish in fresh medium. After incubation for 24 h at 37° C., cells had attached to the plates and cDDP was added to the cells and incubated for 1 h following which the cells were washed twice with phosphate-buffered saline and 5 ml of fresh medium was added. Cultures were incubated for an additional 13-15 days following which there were fixed with methanol, stained with Giemsa, and clusters of >50 cells were scored as colonies. cDDP-selected cells were cultured in drug-free media for 2 weeks before cDDP sensitivity was determined by clonogenic assay.

Experiment [2] deals with GADD153 mRNA. In words: GADD153 mRNA level in UMSCC10b cells and cDDP-resistant sublines after cDDP exposure, RT-PCR. In kind it is cell-based, human. Here is the method: In order to permit use of needle aspiration biopsies of tumors, the highly sensitive technique of RT-PCR rather than the less sensitive technique of Northern blot analysis was utilized throughout for quantitation of mRNA. The magnitude of the change in GADD153 mRNA level as a function of cisplatin (cDDP) concentration was determined by treating UMSCC10b cells with 0.1, 1, 10, or 100 μM cDDP for 1 h and quantifying GADD153 mRNA in untreated and treated cells harvested at 24 h by RT-PCR. The procedure is detailed in the attached examples. The results in FIG. 1 indicate that a concentration-dependent magnitude of increase in GADD153 mRNA levels reached 6-fold at the highest cDDP concentration tested. FIG. 2 depicts the time course of increase in GADD153 following a 1 h exposure to 100 μM cDDP. An increase in GADD153 mRNA level was evident at 12 h after cDDP exposure, and the peak occurred at 24 h followed by a decline to baseline levels by 96 h. β-ACTIN was used as an internal standard to normalize the data.
Without being held to a particular mechanism of action, the present inventors believe that the magnitude of increase in GADD153 mRNA level reflects the extent of tumor cell damage in a tumor treated with a chemotherapeutic agent. Supportive evidence was obtained using sublines of UMSCC10b selected for cDDP resistance. The parental cells, the 3-fold resistant subline UMSCC10b-Pt/S6 (15,16), and the 6-fold resistant subline UMSCC10b-Pt/S15 (15,16) were exposed to 2, 7, 12 μM cDDP for 1 h. These levels of exposure correspond to the IC10, IC50, and IC70 for the parental cell line, respectively.
To assure that the resistant variants had not lost their capacity to activate the GADD153 gene, and to validate the change in GADD153 level as a molecular marker of tumor injury in drug resistant as well as sensitive cells, the effect of cDDP applied at equitoxic concentrations was compared between the parental cells and the two resistant sublines.
To determine the time course of the change in GADD153 mRNA level, UMSCC10b cells were incubated with 100 μM cDDP for 1 h and total RNA was extracted at 0, 1, 2, 6, 12, 24, 48, 72 and 96 h after treatment. To analyze the effect of cDDP concentration on the expression of GADD153 , UMSCC10b cells were incubated for 1 h with various cDDP concentrations (0, 0.1, 1, 10, 100 and 1000 μM) and RNA was extracted 24 h after cDDP exposure.
UMSCC10b cells were harvested in 10 ml of denaturing solution (4 M guanidinium thiocyanate, 25 mM sodium citrate, pH 7, 0.5% sarcosyl, and 0.1 M 2-mercaptoethanol. After adding 1 ml of 2 M sodium acetate (pH 4), 10 ml of water-saturated phenol (pH 4) and 2 ml of chloroform:isoamyl alcohol (49:1) to the denatured cells, they were mixed thoroughly, placed on ice for 15 min, and centrifuged at 2800 rpm for 20 min at 4° C. The aqueous phase was collected and mixed with 10 ml of isopropyl alcohol, placed for 1 h at −20° C. and centrifuged. The pellet was dissolved in 1.8 ml of denaturing solution and 2 ml of isopropyl alcohol, placed for 1 h at −20° C. and centrifuged. The pellet was washed with 1 ml of 80% ethanol and then centrifuged at 5000 rpm for 10 min at room temperature. The RNA pellet was dried for 20 min in a tissue culture hood and resuspended in 100 μl of DEPC-treated water. Of this solution, 50 μl was used immediately for cDNA synthesis.
GADD153 message levels were quantified using a modification of the technique reported by Horikoshi et al (20). Total RNA acquired from the biopsies or xenografts was reverse-transcribed using random hexamers to produce cDNA (20,21,22). Serial dilutions of the CDNA were made and 5 μl of each dilution was placed in a sterile 0.5 ml Eppendorf tube. […]

Setting [3] is: UMSCC10b cells, 1 h exposure to 100 μM cDDP.

What is called IC10 is the concentration at which the effect reaches the 10% level. Usually IC50 stands for the concentration needed to halve the response being measured. What is called IC70 is the concentration needed for an effect of 70%.

Molecules are shown by their SMILES.

Consider `[NH2][Pt]([NH2])([Cl])[Cl]` [cDDP, cisplatin], for which, in experiment [1], the IC10 was 2 µM, the 50% inhibitory concentration (IC50) was 7 µM and the IC70 came out at 12 µM. Moreover, in experiment [2] (3-fold resistant variant UMSCC10b-Pt/S6, 2, 7, 12 μM cDDP for 1 h (equimolar)), the “magnitude of the increase in GADD153 mRNA level” value is listed as “lower than in the parental cells”. For the same compound, the “expression of GADD153” value in experiment [2] (6-fold resistant variant UMSCC10b-Pt/S15, 2, 7, 12 μM cDDP for 1 h (equimolar)) is “did not increase above its baseline level”. Besides, in experiment [2] (setting [3]), the “time at which increase in GADD153 mRNA level was evident” value was 12 h, the “time of decline of GADD153 mRNA to baseline levels” value is no more than 96 h and the “time of peak GADD153 mRNA level” value was 24 h. The “magnitude of increase in GADD153 mRNA levels” value in experiment [2] (UMSCC10b cells, 1 h exposure, highest cDDP concentration tested (100 μM), harvested at 24 h) is recorded as 6 fold. For the same compound, the “change in expression of GADD153 at equitoxic concentrations” value in experiment [2] (parental cells and two resistant sublines, IC10, IC50, IC70) was “no difference between the cell lines”.
